Data on five compounds can be found in article PMC10146186, “Modulation of the Cytotoxic Properties of Pd(II) Complexes Based on Functionalized Carboxamides Featuring Labile Phosphoryl Coordination Sites” (Pharmaceutics, 2023).

Like-named read-outs stand apart in the source and are kept apart here.

The test system of one series is U251 glioblastoma cells. Briefly: MTT cytotoxicity assay, U251. The conditions noted are these: read-out: IC50 ± SD, U251. Format: cell-based, human. The procedure: (§1) To characterize the antitumor potential of the resulting Pd(II) pincer complexes, their cytotoxicities against a panel of human solid and hematopoietic cancer cell lines, including colorectal carcinoma (HCT116), breast cancer (MCF7), prostate adenocarcinoma (PC3), glioblastoma (U251), ovarian adenocarcinoma (Scov3), chronic myelogenous leukemia (K562) and its resistant subclone (K562/iS9), multiple plasmacytoma (AMO1), and acute lymphoblastic leukemia (H9) cell lineages, were evaluated using the conventional MTT assay. […] For comparison, the inhibitory effects of the compounds explored on noncancerous human embryonic kidney cells HEK293 as well as transformed breast cells HBL100 and their doxorubicin-resistant analogs HBL100/Dox were also investigated under the same conditions.
(§2) The cytotoxic activity of the compounds explored was investigated on human colorectal carcinoma (HCT116), breast cancer (MCF7), prostate adenocarcinoma (PC3), glioblastoma (U251), ovarian adenocarcinoma (Scov3), chronic myelogenous leukemia (K562 and K562/iS9), multiple plasmacytoma (AMO1), and acute lymphoblastic leukemia (H9) cell lines, as well as human embryonic kidney (HEK293) and mammary epithelial (HBL100 and HBL100/Dox) cells used as representatives of pseudonormal cells. All cell lines were obtained from American Type Culture Collection (ATCC). RPMI-1640 and DMEM media were obtained from Gibco. Fetal bovine serum (FBS) was purchased from HyClone. Cells were cultured in RPMI-1640 or DMEM media supplemented with 10% FBS and 50 μg/mL gentamicin in a humidified incubator with 5% CO2 atmosphere. The cell growth inhibitory effects of the compounds were evaluated using the conventional MTT assay (ICN Biomedicals, Eschwege, Germany). Cells were seeded in triplicate at a cell density of 5 × 10^3/well in 96-well plates in 100 µL complete medium and preincubated for 24 h. The tested compounds were initially dissolved in DMSO. Then, the compounds at various concentrations were added to the media. The well plates were incubated for 48 h followed by addition of MTT solution (Sigma, Darmstadt, Germany) (20 μL, 5 mg/mL). The cells were incubated at 37 °C for further 3 h; then the culture medium was removed, and formazan crystals were dissolved in DMSO (70 μL). The absorbance of the resulting solutions was measured on a multi-well plate reader (Multiskan FC, Thermo scientific) at 530 nm to determine the percentage of surviving cells. The reported values of IC50 are the averages of three independent experiments (Table 2 and Table 3). Cisplatin (in the initial form of an infusion concentrate in natural saline solution) from a commercial source was used as the reference.

Series [1] has as its system HEK293 embryonic kidney cells. Briefly: MTT cytotoxicity assay, HEK293. Type of series: cell-based, human. The conditions noted are these: HEK293 noncancerous cells, 48 h exposure, read-out: IC50 ± SD, HEK293. The protocol: as §1, §2
Series [2] deals with PC3 prostate adenocarcinoma cells. Nature of the series: MTT cytotoxicity assay, PC3. Type of series: cell-based, human. As to conditions: 48 h exposure, read-out: IC50 ± SD, PC3. The procedure: as §1, §2
Series [3] deals with HBL100 mammary epithelial cells. Briefly: MTT cytotoxicity assay, HBL100. Format: cell-based, human. As to conditions: read-out: IC50 ± SD, HBL100. The protocol: as §1, §2
Another series concerns MCF7 breast cancer cells. Briefly: MTT cytotoxicity assay, MCF7. Format: cell-based, human. As to conditions: for IC50: MCF7, MTT, 48 h exposure, read-out: IC50 ± SD, MCF7. The procedure: as §1, §2
In series [4] the test system is HBL100/Dox doxorubicin-resistant mammary epithelial cells. Briefly: MTT cytotoxicity assay, HBL100/Dox. Format: cell-based, human. The conditions noted are these: for IC50: MTT, 48 h exposure, read-out: IC50 ± SD, HBL100/Dox. The protocol:
as §1, §2

The test system of series [5] is K562/iS9 resistant chronic myelogenous leukemia cells. Briefly: MTT cytotoxicity assay, K562/iS9. Type of series: cell-based, human. The conditions noted are these: read-out: IC50 ± SD, K562/iS9. The procedure: as §1, §2
For series [6], the system named is HCT116 colorectal carcinoma cells. Nature of the series: MTT cytotoxicity assay, HCT116. Type of series: cell-based, human. As to conditions: read-out: IC50 ± SD, HCT116. The protocol:
as §1, §2

In series [7] the test system is Scov3 ovarian adenocarcinoma cells. Briefly: MTT cytotoxicity assay, Scov3. As to conditions: Scov3, MTT, 48 h exposure, read-out: IC50 ± SD, Scov3. Type of series: cell-based, human. The procedure: as §1, §2
The subject of series [8] is AMO1 multiple plasmacytoma cells. Briefly: MTT cytotoxicity assay, AMO1. As to conditions: for IC50: AMO1, MTT, 48 h exposure, read-out: IC50 ± SD, AMO1. Format: cell-based, human. The procedure: as §1, §2
Series [9] relates to K562 chronic myelogenous leukemia cells. Briefly: MTT cytotoxicity assay, K562. As to conditions: 48 h exposure, read-out: IC50 ± SD, K562. Type of series: cell-based, human. The procedure:
as §1, §2

Series [10] concerns H9 acute lymphoblastic leukemia cells. Nature of the series: MTT cytotoxicity assay, H9. Format: cell-based, human. The conditions noted are these: 48 h exposure, read-out: IC50 ± SD, H9. The procedure: as §1
as §2, with “Then, the compounds at various concentrations were added to the media. The well plates were incubated for 48 h followed by addition of MTT solution (Sigma, Darmstadt, Germany) (20 μL, 5 mg/mL). The cells were incubated at 37 °C for further 3 h; then the culture medium was removed, and formazan crystals were dissolved in DMSO (70 μL).” left out, “The reported values of IC50 are the averages of three independent experiments (Table 2 and Table 3). Cisplatin (in the initial form of an infusion concentrate in natural saline solution) from a commercial source was used as the reference.” left out

The subject of another series is K562 cells. Briefly: MTT assay with complexes preliminarily kept in DMSO–RPMI 1640, K562. Format: cell-based, human. As to conditions: K562, kept in DMSO–RPMI 1640 (1/10 by volume) for 48 h before experiment, 72 h incubation. The protocol:
(§3) The observed dependences correlate well with our previous findings on the lability of the phosphoryl sites in palladocycles 2a,b, 3a,b and can be rationalized in terms of their coordination behavior. […] However, the presence of an additional competitive chloride anion makes complex 2b potentially more susceptible to decoordination of the phosphoryl arm. […] At least the N,N-bidentately bound core remained intact in the mentioned media over a period of 48 h.
(§4) Figure S51. Effect of complexes 2b (a) and 3b (b) dissolved either in neat DMSO or DMSO–RPMI 1640 mixture on AMO1 and K562 cells (cell viability was defined by the conventional MTT assay according to the methodology described in the Experimental section with slight modifications: the complexes explored were preliminarily kept in neat DMSO or DMSO–RPMI 1640 mixture for 2 days before the experiments and the following incubation period […]

For another series, the system named is AMO1 cells. Briefly: MTT assay with complexes preliminarily kept in DMSO–RPMI 1640, AMO1. The conditions noted are these: AMO1, kept in DMSO–RPMI 1640 (1/10 by volume) for 48 h before experiment, 72 h incubation. Format: cell-based, human. The procedure:
as §3, §4

Series [11] can be described thus: 31P NMR stability study in CDCl3–(CD3)2SO mixture. Type of series: physicochemical. The conditions noted are these: commensurable decomposition degree reached only in a week. The protocol: as §3
A short description of series [12]: Solubility and stability in solvents (observation). The conditions noted are these: for stability in DMSO: strongly coordinating media (DMSO). Format: physicochemical. The text has this:
To further explore the effect of lability of coordination sites on the biological activity of this type of cyclopalladated complexes, we decided to modify the second arm in the O,N,N-ligand framework, specifically the ancillary N-donor group, replacing the pyridine unit for a more rigid quinoline moiety. The reaction of [amino(phenyl)methyl]diphenylphosphine oxide hydrochloride with in situ generated quinoline-2-carboxylic acid chloride smoothly furnished functionalized amide 4, which, in turn, readily underwent direct cyclopalladation, affording Pd(II) pincer complex 5 (Scheme 4). The molecular structure of this palladocycle is presented in Figure 4, while its main geometric parameters are listed in Table S1 in the SI. Unfortunately, complex 5 appeared to be insoluble in common organic solvents and unstable in strongly coordinating media (e.g., DMSO); a possible reason for the stability issues is its highly constrained structure. Therefore, it was withdrawn from the cytotoxicity studies.
A solution of PdCl2(NCPh)2 (70 mg, 0.182 mmol) in CH2Cl2 (4 mL) was added dropwise to a solution of ligand 4 (84 mg, 0.182 mmol) and Et3N (26 μL, 0.186 mmol) in CH2Cl2 (6 mL). The reaction mixture was left under ambient conditions for 1 day and then filtered through a pad of cotton. The filtrate was evaporated to dryness. The resulting residue was washed with Et2O and purified by column chromatography on silica gel (eluent: CHCl3–EtOH (25:1)) to give 60 mg of the target pincer complex as a yellow crystalline solid. Yield: 55%. Mp: >175 °C (dec.). ^31P{^1H} NMR (161.98 MHz, CH2Cl2/D2O): δ 72.32 ppm (the ^1H and ^13C{^1H} NMR spectroscopic data for complex 5 were not obtained due to its low solubility in common organic solvents (e.g., chlorinated hydrocarbons and acetonitrile) and instability in strongly coordinating media (e.g., DMSO)). IR (KBr, ν/cm^–1): 521(w), 534(w), 561(s), 586(w), 699(m), 725(w), 766(w), 852(w), 927(vw), 998(w), 1024(m), 1042(m), 1121(m) (νP=O), 1154(w), 1341(w), 1378(br, m), 1437(m), 1461(w), 1493(w), 1516(w), 1560(w), 1595(w), 1633(s) (νC=O), 2923(vw), 3064(w). […]

Regarding `N.N.[Cl][Pt][Cl]` [Cisplatin, reference compound], the IC50 in the series on U251 glioblastoma cells (48 h exposure) came out at 16.5 ± 1.5 µM; in [1] it was 12.5 ± 1.5 µM; in series [2], 16 ± 3 µM; in [3] (48 h exposure), 14.6 ± 3.6 µM; in the series on MCF7 breast cancer cells it was 25 ± 4 µM; in [4], 23.6 ± 3.6 µM. The IC50 in [5] (48 h exposure) is 16 ± 2 µM; in [6] (48 h exposure), 18 ± 2 µM; in [7], 21 ± 3 µM; in series [8] it was 3.2 ± 0.6 µM; in series [9], 15.5 ± 0.5 µM.

Turning to `O=C(c1ccccn1)[N]([Pd][Cl])C(c1ccccc1)P(=O)(c1ccccc1)c1ccccc1` (stereo not drawn) [complex 3b, [κ^3-O,N,N-(L)Pd(II)Cl]], the IC50 in the series on U251 glioblastoma cells (48 h exposure) was found to be 43 ± 5 µM; in [1] it was 12.5 ± 3.5 µM; in [2] it was 16 ± 2 µM; in [3] (48 h exposure) it was 17.8 ± 0.8 µM; in the series with MCF7 breast cancer cells it was 13 ± 1.5 µM; in series [4], 28 ± 2.6 µM. For the same compound, the IC50 in series [5] (48 h exposure) was 7.2 ± 1 µM; in [10], 3.2 ± 0.2 µM; in series [6] (48 h exposure), 4 ± 2 µM; in series [7] it was 40 ± 0.6 µM; in series [8], 2.7 ± 0.5 µM; in [9] it was 6.4 ± 0.4 µM. The “cytotoxic activity after keeping in DMSO–RPMI 1640 mixture vs neat DMSO” value in the series on K562 cells and in the series with AMO1 cells was “comparable” in each case. In addition, in [11], the “stability in CDCl3–(CD3)2SO mixture” value was “quite stable”.

Regarding `O=C(c1ccc2ccccc2n1)[N]([Pd][Cl])C(c1ccccc1)P(=O)(c1ccccc1)c1ccccc1` (stereo not drawn) [complex 5, [κ^3-O,N,N-(L)Pd(II)Cl]], the “solubility in common organic solvents” value in [12] (common organic solvents) is “insoluble”. Further, the “stability in DMSO” value in series [12] is “unstable”.

As to `O=C(c1cccc2cccnc12)[N](CP(=O)(c1ccccc1)c1ccccc1)[Pd][Cl]` [complex 7, [κ^3-O,N,N-(L)Pd(II)Cl]], the IC50 in series [1] was determined as 23 ± 3 µM; in [2], 52 ± 10 µM; in the series on MCF7 breast cancer cells, 58 ± 12 µM; in series [6] (48 h exposure) it was 38 ± 6 µM. For the same compound, the “stability in DMSO” value in series [12] is “stable”.

For `O=C(NCP(=O)(c1ccccc1)c1ccccc1)c1ccccn1` [ligand 1a, N-[(Diphenylphosphoryl)methyl]picolinamide], the IC50 in the series on U251 glioblastoma cells (Homo sapiens, U-251, 48 h exposure) is over 100 µM; in series [1] (Homo sapiens) it was over 100 µM; in series [2] (Homo sapiens) it was over 100 µM; in series [3] (Homo sapiens, HBL-100, 48 h exposure), over 100 µM; in [5] (Homo sapiens, K562i/S9, 48 h exposure) it was over 80 µM; in [10] (Homo sapiens), over 80 µM. Also, the IC50 in [6] (Homo sapiens, HCT-116, 48 h exposure) is over 100 µM; in [7] (Homo sapiens), over 100 µM; in series [9] (Homo sapiens), over 80 µM. In addition, the “percentage of live cells” value is recorded as 46% ^3 in the series on MCF7 breast cancer cells (MCF7, compound concentration 100.0 μM, 48 h); 35% ^3 in series [4] (compound concentration 100.0 μM, 48 h); 41% ^3 in series [8] (AMO1, compound concentration 80.0 μM, 48 h).
